Test results reported in PubChem BioAssay AID248 (DTP/NCI, 2004).
Several values for one entry are separate records, joined by “and”; a condition that tells them apart may be missing. Equal entries are not always repeated. Toxic doses and inconclusive results are not listed. No stated cut-off is given here; in the data, active means T/C of 150% or more; inactive means T/C below 125%.

Test system: L1210 leukemia ip in BDF1 mice, survival T/C
Assay: NCI In Vivo Anticancer Drug Screen. Data for tumor model L1210 Leukemia (intraperitoneal) in B6D2F1 (BDF1) mice
Settings: endpoint: mean survival time, higher = longer survival
How it was run: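 Mice bearing the transplanted tumor received compound or vehicle. Survival of the treated group was divided by that of the vehicle-treated control group to give the ratio.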

[1] = dose: 100.0 mg/kg/injection, schedule: Q01DX009 (ip), vehicle: saline
[2] = dose: 100.0 mg/kg/injection, schedule: Q04DX003 (ip), vehicle: saline
[3] = dose: 200.0 mg/kg/injection, schedule: Q01DX009 (ip), vehicle: saline
[4] = dose: 200.0 mg/kg/injection, schedule: Q04DX003 (ip), vehicle: saline
[5] = dose: 400.0 mg/kg/injection, schedule: Q04DX003 (ip), vehicle: saline
[6] = dose: 400.0 mg/kg/injection, schedule: Q01DX009 (ip), vehicle: saline
[7] = dose: 100.0 mg/kg/injection, schedule: Q01DX001 (ip), vehicle: saline
[8] = dose: 200.0 mg/kg/injection, schedule: Q01DX001 (ip), vehicle: saline
[9] = dose: 400.0 mg/kg/injection, schedule: Q01DX001 (ip), vehicle: saline
[10] = dose: 100.0 mg/kg/injection, schedule: Q01DX009 (ip), vehicle: saline with Tween-80
[11] = dose: 200.0 mg/kg/injection, schedule: Q01DX009 (ip), vehicle: saline with Tween-80
[12] = dose: 50.0 mg/kg/injection, schedule: Q01DX001 (ip), vehicle: saline
[13] = dose: 100.0 mg/kg/injection, schedule: Q01DX009 (ip), vehicle: Klucel (hydroxypropylcellulose) (HPC)
[14] = dose: 200.0 mg/kg/injection, schedule: Q01DX009 (ip), vehicle: Klucel (hydroxypropylcellulose) (HPC)
[15] = dose: 100.0 mg/kg/injection, schedule: Q04DX003 (ip), vehicle: Klucel (hydroxypropylcellulose) (HPC)
[16] = dose: 200.0 mg/kg/injection, schedule: Q04DX003 (ip), vehicle: Klucel (hydroxypropylcellulose) (HPC)
[17] = dose: 400.0 mg/kg/injection, schedule: Q04DX003 (ip), vehicle: Klucel (hydroxypropylcellulose) (HPC)

Measured: T/C

NCC1CC2CCC1C2 (stereo unspecified)
inactive: [1] 90 % of control | [2] 101 % of control | [3] 90 % of control | [4] 103 % of control | [5] 103 % of control

C[n+]1ccc(Nc2ccc(NC(=O)c3ccc(N)cc3[N+](=O)[O-])cc2)cc1
inactive: dose: 25.0 mg/kg/injection, schedule: Q01DX001 (ip), vehicle: saline with Tween-80 93 % of control and 107 % of control | dose: 50.0 mg/kg/injection, schedule: Q01DX001 (ip), vehicle: saline with Tween-80 97 % of control | dose: 100.0 mg/kg/injection, schedule: Q04DX002 (ip), vehicle: saline with Tween-80 108 % of control and 117 % of control | dose: 200.0 mg/kg/injection, schedule: Q04DX002 (ip), vehicle: saline with Tween-80 94 % of control and 101 % of control | dose: 400.0 mg/kg/injection, schedule: Q01DX001 (ip), vehicle: saline with Tween-80 104 % of control and 91 % of control | dose: 400.0 mg/kg/injection, schedule: Q04DX002 (ip), vehicle: saline with Tween-80 103 % of control and 114 % of control

[C-]#[N+]CCCCCC
inactive: dose: 3.12 mg/kg/injection, schedule: Q04DX003 (sc), vehicle: olive oil, sesame oil, peanut oil 101 % of control | dose: 4.21 mg/kg/injection, schedule: Q01DX009 (ip), vehicle: olive oil, sesame oil, peanut oil 92 % of control | dose: 6.25 mg/kg/injection, schedule: Q04DX003 (sc), vehicle: olive oil, sesame oil, peanut oil 93 % of control | dose: 8.43 mg/kg/injection, schedule: Q01DX009 (sc), vehicle: olive oil, sesame oil, peanut oil 112 % of control | dose: 12.5 mg/kg/injection, schedule: Q04DX003 (sc), vehicle: olive oil, sesame oil, peanut oil 88 % of control | dose: 16.87 mg/kg/injection, schedule: Q01DX009 (sc), vehicle: olive oil, sesame oil, peanut oil 112 % of control | dose: 18.0 mg/kg/injection, schedule: Q04DX003 (sc), vehicle: other 104 % of control | dose: 28.0 mg/kg/injection, schedule: Q04DX003 (sc), vehicle: other 101 % of control | dose: 40.0 mg/kg/injection, schedule: Q04DX003 (sc), vehicle: other 108 % of control | dose: 60.0 mg/kg/injection, schedule: Q04DX003 (sc), vehicle: olive oil, sesame oil, peanut oil 111 % of control | dose: 90.0 mg/kg/injection, schedule: Q04DX003 (sc), vehicle: olive oil, sesame oil, peanut oil 100 % of control | dose: 135.0 mg/kg/injection, schedule: Q04DX003 (sc), vehicle: olive oil, sesame oil, peanut oil 109 % of control

O=C(O)Cc1cccnc1
inactive: [1] 102 % of control | [2] 101 % of control | [3] 100 % of control | [4] 104 % of control | [6] 89 % of control | [5] 95 % of control

CN(C)c1ccc(C(=C2C=CC(=[N+](C)C)C=C2)c2ccc(N(C)C)cc2)cc1
inactive: [7] 97 % of control | [8] 105 % of control

CCC(=O)n1cc2ccc([N+](=O)[O-])cc2n1
inactive: dose: 100.0 mg/kg/injection, schedule: Q04DX002 (ip), vehicle: Klucel (hydroxypropylcellulose) (HPC) 112 % of control | dose: 200.0 mg/kg/injection, schedule: Q04DX002 (ip), vehicle: Klucel (hydroxypropylcellulose) (HPC) 104 % of control | dose: 400.0 mg/kg/injection, schedule: Q04DX002 (ip), vehicle: Klucel (hydroxypropylcellulose) (HPC) 101 % of control

CSCSCC(N)C(=O)O (stereo unspecified)
inactive: [7] 94 % of control | dose: 150.0 mg/kg/injection, schedule: Q04DX003 (ip), vehicle: saline 100 % of control | [8] 100 % of control | dose: 300.0 mg/kg/injection, schedule: Q04DX003 (ip), vehicle: saline 94 % of control | [9] 100 % of control | dose: 600.0 mg/kg/injection, schedule: Q04DX003 (ip), vehicle: saline 97 % of control

O=C1NCCc2cc3c(cc21)OCO3
inactive: dose: 25.0 mg/kg/injection, schedule: Q04DX002 (ip), vehicle: saline 97 % of control | dose: 50.0 mg/kg/injection, schedule: Q04DX002 (ip), vehicle: saline 106 % of control | dose: 100.0 mg/kg/injection, schedule: Q04DX002 (ip), vehicle: saline 103 % of control

Cc1ccc(NC(=O)C(Br)C(Br)C(=O)O)cc1Cl (stereo unspecified)
inactive: [10] 107 % of control | [11] 97 % of control

CC(=O)Nc1ccc(NS(=O)(=O)O)cc1
inactive: [12] 96 % of control | [7] 96 % of control | [8] 93 % of control | [9] 96 % of control

Cc1nc(-c2ccc(N=Cc3ccc(N(CCOS(C)(=O)=O)CCOS(C)(=O)=O)cc3C)cc2)c(C)s1
inactive: dose: 5.0 mg/kg/injection, schedule: Q01DX009 (ip), vehicle: Klucel (hydroxypropylcellulose) (HPC) 120 % of control | dose: 10.0 mg/kg/injection, schedule: Q01DX009 (ip), vehicle: Klucel (hydroxypropylcellulose) (HPC) 120 % of control | dose: 20.0 mg/kg/injection, schedule: Q01DX001 (ip), vehicle: Klucel (hydroxypropylcellulose) (HPC) 121 % of control | dose: 26.6 mg/kg/injection, schedule: Q01DX001 (ip), vehicle: Klucel (hydroxypropylcellulose) (HPC) 108 % of control | dose: 40.0 mg/kg/injection, schedule: Q01DX001 (ip), vehicle: Klucel (hydroxypropylcellulose) (HPC) 119 % of control | dose: 60.0 mg/kg/injection, schedule: Q01DX001 (ip), vehicle: Klucel (hydroxypropylcellulose) (HPC) 111 % of control

CC1CCCC(C)(CO)O1 (stereo unspecified)
inactive: [1] 93 % of control | [2] 97 % of control | [3] 101 % of control | [4] 97 % of control | [6] 109 % of control | [5] 97 % of control

O=C(N/N=C/C(CC(O)C(O)CO)=N/NC(=O)c1ccc(Cl)cc1)c1ccc(Cl)cc1 (stereo unspecified)
inactive: [13] 109 % of control | [14] 97 % of control

CNC(=O)Oc1coc(CCl)cc1=O
inactive: dose: 37.5 mg/kg/injection, schedule: Q01DX001 (ip), vehicle: other 106 % of control | dose: 75.0 mg/kg/injection, schedule: Q01DX001 (ip), vehicle: other 101 % of control | dose: 150.0 mg/kg/injection, schedule: Q01DX001 (ip), vehicle: other 104 % of control

S=C(Nc1ccccc1)Nc1nccs1
inactive: [7] 104 % of control | [15] 105 % of control | [8] 101 % of control | [16] 101 % of control | [9] 101 % of control | [17] 103 % of control

CC1CCCC(NC(=O)NCCCl)C1 (stereo unspecified)
inactive: [15] 95 % of control | [16] 87 % of control | [17] 98 % of control

c1ccc(N(c2ccccc2)c2ccccc2)cc1
inactive: [13] 102 % of control | [10] 93 % of control | [15] 91 % of control | dose: 100.0 mg/kg/injection, schedule: Q04DX003 (ip), vehicle: saline with Tween-80 100 % of control | [14] 91 % of control | [11] 95 % of control | [16] 95 % of control | dose: 200.0 mg/kg/injection, schedule: Q04DX003 (ip), vehicle: saline with Tween-80 96 % of control | dose: 400.0 mg/kg/injection, schedule: Q01DX009 (ip), vehicle: Klucel (hydroxypropylcellulose) (HPC) 98 % of control | dose: 400.0 mg/kg/injection, schedule: Q01DX009 (ip), vehicle: saline with Tween-80 95 % of control | [17] 98 % of control | dose: 400.0 mg/kg/injection, schedule: Q04DX003 (ip), vehicle: saline with Tween-80 90 % of control

Cc1ccn2c(=O)cc(O)nc2c1
inactive: [12] 101 % of control | [7] 98 % of control | [8] 92 % of control | [9] 98 % of control
